Laboratory results reported in patent US10457654B2 (GENENTECH, INC., priority 2017, dated 2019).

Assays:
hNav1.7 [1] = target: T1, hNav1.7 (Homo sapiens (Human), UniProt Q15858); experiment: Tritiated compound binding to membranes from cells expressing hNav1.7 and the β1 subunit, modified protocol (LBA, Ex. 243B); details: 300 pM [3H]compound, room temperature, read-out: Nav1.7 LBA (Ex. 243B) IC50
Target sequence in this assay (Q15858 whole entry, looked up): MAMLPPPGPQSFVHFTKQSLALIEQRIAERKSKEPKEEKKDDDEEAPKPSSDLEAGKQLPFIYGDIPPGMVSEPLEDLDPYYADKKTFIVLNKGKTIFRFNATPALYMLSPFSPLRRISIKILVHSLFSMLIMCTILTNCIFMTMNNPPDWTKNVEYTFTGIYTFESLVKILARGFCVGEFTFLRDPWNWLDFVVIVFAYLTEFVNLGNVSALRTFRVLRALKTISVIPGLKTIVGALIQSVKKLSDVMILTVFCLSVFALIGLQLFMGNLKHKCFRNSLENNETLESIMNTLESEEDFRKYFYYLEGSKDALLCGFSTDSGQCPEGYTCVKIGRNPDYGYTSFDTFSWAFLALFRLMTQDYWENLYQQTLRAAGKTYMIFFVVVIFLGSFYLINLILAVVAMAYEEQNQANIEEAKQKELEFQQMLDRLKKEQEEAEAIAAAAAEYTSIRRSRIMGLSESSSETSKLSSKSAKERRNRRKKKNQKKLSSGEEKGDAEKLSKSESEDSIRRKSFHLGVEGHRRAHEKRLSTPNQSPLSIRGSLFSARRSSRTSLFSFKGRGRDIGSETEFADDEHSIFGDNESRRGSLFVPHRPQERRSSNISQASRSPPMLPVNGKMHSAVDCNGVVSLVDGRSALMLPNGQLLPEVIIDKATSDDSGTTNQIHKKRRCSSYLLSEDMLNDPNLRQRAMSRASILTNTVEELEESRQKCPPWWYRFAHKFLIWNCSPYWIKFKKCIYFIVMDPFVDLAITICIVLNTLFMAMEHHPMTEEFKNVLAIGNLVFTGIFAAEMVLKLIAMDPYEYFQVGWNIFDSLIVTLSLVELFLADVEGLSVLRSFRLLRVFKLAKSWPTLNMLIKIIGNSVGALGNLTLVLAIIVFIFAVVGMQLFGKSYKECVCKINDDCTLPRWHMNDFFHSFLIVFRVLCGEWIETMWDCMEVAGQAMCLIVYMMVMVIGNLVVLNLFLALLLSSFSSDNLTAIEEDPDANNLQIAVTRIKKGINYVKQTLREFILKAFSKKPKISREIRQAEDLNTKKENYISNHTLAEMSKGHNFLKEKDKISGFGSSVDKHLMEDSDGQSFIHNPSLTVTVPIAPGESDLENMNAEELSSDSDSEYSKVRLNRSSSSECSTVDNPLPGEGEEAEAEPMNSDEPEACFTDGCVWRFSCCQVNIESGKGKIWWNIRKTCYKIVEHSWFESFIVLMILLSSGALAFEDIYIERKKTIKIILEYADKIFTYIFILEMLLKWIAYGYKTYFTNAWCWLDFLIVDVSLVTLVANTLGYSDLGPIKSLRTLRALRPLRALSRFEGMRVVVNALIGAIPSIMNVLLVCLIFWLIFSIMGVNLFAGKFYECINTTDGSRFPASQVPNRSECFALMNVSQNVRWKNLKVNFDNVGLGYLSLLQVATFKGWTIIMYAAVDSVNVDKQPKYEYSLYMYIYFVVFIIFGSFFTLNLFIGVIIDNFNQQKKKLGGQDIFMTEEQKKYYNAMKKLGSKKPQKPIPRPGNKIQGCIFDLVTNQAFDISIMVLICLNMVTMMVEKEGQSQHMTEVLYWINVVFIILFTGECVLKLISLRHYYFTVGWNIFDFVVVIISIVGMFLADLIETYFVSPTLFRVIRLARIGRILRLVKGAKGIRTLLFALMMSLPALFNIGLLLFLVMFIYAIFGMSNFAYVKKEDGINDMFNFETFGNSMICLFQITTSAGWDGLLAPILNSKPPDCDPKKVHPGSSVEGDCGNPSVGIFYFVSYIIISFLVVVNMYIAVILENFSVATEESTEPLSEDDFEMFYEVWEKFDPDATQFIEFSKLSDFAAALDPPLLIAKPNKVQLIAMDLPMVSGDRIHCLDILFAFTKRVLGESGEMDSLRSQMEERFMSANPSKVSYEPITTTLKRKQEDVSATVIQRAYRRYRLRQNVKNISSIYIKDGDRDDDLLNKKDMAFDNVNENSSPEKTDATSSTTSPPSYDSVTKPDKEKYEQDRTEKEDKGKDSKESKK
Target sequence in this assay (Q07699 whole entry partner, looked up): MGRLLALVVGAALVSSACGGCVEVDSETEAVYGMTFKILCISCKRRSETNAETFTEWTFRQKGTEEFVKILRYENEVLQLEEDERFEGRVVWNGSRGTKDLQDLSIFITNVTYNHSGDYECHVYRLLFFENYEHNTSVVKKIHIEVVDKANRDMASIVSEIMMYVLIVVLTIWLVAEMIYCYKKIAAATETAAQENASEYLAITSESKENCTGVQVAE

hNav1.7 [2] = target: T1, hNav1.7; experiment: Patch voltage clamp electrophysiology assay (EP), Syncropatch 384PE, CHO cells expressing Nav1.7; type: cell-based; details: read-out: EP_SP hNav1.7 (Ex. 243B) IC50
Procedure, shortened: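 Automated whole-cell patch clamp on CHO cells stably expressing human Nav1.7, CsCl/EGTA internal and NMDG/80 mM Na+ external (pH 7.4). From −50 mV holding, −10 mV step, 20 ms recovery at −150 mV, then second −10 mV pulse where block is measured; inhibition after 7.5 min compound incubation.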
Target sequence in this assay (Q15858 other isoform, or with tags, fused parts or gaps): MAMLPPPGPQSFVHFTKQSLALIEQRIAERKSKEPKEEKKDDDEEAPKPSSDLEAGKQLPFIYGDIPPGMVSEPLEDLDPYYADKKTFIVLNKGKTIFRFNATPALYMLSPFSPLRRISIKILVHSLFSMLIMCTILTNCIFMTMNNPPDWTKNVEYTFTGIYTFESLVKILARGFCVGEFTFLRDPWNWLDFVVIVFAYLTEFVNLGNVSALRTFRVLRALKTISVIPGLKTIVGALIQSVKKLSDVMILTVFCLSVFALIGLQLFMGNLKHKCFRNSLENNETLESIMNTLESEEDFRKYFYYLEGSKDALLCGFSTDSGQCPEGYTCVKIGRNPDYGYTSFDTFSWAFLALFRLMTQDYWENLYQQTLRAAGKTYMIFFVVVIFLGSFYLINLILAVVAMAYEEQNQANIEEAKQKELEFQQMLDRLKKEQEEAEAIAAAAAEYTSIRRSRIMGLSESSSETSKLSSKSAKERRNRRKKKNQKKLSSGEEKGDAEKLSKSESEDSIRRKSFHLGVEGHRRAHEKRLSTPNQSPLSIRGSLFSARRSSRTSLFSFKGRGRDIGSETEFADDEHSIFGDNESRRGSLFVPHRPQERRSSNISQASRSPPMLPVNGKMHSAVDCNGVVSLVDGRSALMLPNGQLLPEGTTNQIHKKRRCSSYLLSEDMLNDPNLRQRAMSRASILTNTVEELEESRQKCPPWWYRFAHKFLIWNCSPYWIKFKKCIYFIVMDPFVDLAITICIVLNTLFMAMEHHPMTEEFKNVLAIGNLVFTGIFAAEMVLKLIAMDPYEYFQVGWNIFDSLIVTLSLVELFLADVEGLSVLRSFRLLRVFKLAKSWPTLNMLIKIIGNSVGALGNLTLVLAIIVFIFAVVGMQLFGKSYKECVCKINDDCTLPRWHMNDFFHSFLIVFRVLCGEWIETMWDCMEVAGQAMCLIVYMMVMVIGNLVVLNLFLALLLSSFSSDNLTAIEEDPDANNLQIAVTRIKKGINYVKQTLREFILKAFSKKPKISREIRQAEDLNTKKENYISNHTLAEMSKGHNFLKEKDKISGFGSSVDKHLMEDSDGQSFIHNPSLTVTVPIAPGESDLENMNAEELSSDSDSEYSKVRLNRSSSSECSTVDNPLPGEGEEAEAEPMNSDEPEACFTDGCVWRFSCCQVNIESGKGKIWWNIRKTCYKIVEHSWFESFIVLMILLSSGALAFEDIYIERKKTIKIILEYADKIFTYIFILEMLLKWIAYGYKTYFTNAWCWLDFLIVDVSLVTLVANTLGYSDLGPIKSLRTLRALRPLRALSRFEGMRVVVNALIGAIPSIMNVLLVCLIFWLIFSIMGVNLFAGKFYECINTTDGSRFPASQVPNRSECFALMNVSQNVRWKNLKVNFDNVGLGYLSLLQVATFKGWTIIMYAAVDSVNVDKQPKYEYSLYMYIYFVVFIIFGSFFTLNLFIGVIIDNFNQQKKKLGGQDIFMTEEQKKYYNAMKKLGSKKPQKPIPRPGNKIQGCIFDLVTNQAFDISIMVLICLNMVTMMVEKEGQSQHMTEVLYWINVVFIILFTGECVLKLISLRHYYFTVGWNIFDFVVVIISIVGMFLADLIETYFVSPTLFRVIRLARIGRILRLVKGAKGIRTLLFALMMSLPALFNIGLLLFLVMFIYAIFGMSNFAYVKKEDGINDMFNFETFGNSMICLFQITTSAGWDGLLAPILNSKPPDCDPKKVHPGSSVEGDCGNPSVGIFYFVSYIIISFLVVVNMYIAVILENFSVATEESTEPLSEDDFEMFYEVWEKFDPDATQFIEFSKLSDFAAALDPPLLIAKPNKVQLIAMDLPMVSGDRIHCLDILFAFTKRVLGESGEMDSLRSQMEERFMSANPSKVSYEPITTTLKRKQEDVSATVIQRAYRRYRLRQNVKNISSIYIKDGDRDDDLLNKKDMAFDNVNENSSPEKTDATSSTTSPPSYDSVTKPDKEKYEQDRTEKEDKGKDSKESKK

[3] = holding potential -50 mV, […] compound incubation

## CN(C)[C@H]1C[C@@H](c2cccc(C(F)(F)F)c2)CC[C@@H]1Oc1cc(F)c(S(=O)(=O)Nc2ccncn2)cc1Cl [Example 238, 5-chloro-4-(((1S,2S,4S)-2-(dimethylamino)-4-(3-(trifluoromethyl)phenyl)cyclohexyl)oxy)-2-fluoro-N-(pyrimidin-4-yl)benzenesulfonamide]
hNav1.7 [1]
  IC50: 5.54 nM
hNav1.7 [2]; [3]
  IC50: 1.17 nM

## O=S(=O)(Nc1nccs1)c1cc(Cl)c(N[C@@H]2CCCC[C@H]2N2CC3CC3C2)cc1F (stereo partly drawn) [Example 159, 4-(((1R,2R)-2-(3-azabicyclo[3.1.0]hexan-3-yl)cyclohexyl)amino)-5-chloro-2-fluoro-N-(thiazol-2-yl)benzenesulfonamide]
hNav1.7 [1]
  IC50: 1790 nM
hNav1.7 [2]
  IC50: 202 nM

## CN1CCC(N(C)[C@H]2CCCC[C@@H]2Nc2cc(F)c(S(=O)(=O)Nc3cccc(F)n3)cc2Cl)CC1 [Example 109, 5-chloro-2-fluoro-N-(6-fluoropyridin-2-yl)-4-(((1S,2S)-2-(methyl(1-methylpiperidin-4-yl)amino)cyclohexyl)amino)benzenesulfonamide]
hNav1.7 [1]
  IC50: 50.7 nM
hNav1.7 [2]; [3]
  IC50: 8.68 nM

## CN(CC1(F)CC1)[C@H]1CCCC[C@@H]1Nc1cc(F)c(S(=O)(=O)Nc2nccs2)cc1Cl [Example 136, 5-chloro-2-fluoro-4-(((1S,2S)-2-(((1-fluorocyclopropyl)methyl)(methyl)amino)cyclohexyl)amino)-N-(thiazol-2-yl)benzenesulfonamide]
hNav1.7 [1]
  IC50: 493 nM
hNav1.7 [2]; [3]
  IC50: 30.1 nM

## N#C[C@H]1CCCN([C@H]2CCCC[C@@H]2Nc2cc(F)c(S(=O)(=O)Nc3nccs3)cc2Cl)C1 [Example 177, 5-chloro-4-(((1S,2S)-2-((S)-3-cyanopiperidin-1-yl)cyclohexyl)amino)-2-fluoro-N-(thiazol-2-yl)benzenesulfonamide]
hNav1.7 [1]
  IC50: 60.9 nM
hNav1.7 [2]; [3]
  IC50: 2.91 nM

## CN(C)[C@H]1CCCC[C@@H]1N1CCOc2cc(S(=O)(=O)Nc3nccs3)c(F)cc21 [Example 132, 4-((1 S,2S)-2-(dimethylamino)cyclohexyl)-6-fluoro-N-(thiazol-2-yl)-3,4-dihydro-2H-benzo[b][1,4]oxazine-7-sulfonamide]
hNav1.7 [1]
  IC50: 306 nM
hNav1.7 [2]; [3]
  IC50: 14 nM

## CN(CCC(C)(C)O)[C@H]1CCCC[C@@H]1Nc1cc(F)c(S(=O)(=O)Nc2cccc(F)n2)cc1Cl [Example 124, 5-chloro-2-fluoro-N-(6-fluoropyridin-2-yl)-4-(((1S,2S)-2-((3-hydroxy-3-methylbutyl)(methyl)amino)cyclohexyl)amino)benzenesulfonamide]
hNav1.7 [1]
  IC50: 1230 nM
hNav1.7 [2]; [3]
  IC50: 107 nM

## CC(C)C(=O)N1CC(N(C)[C@H]2CCCC[C@@H]2Nc2cc(F)c(S(=O)(=O)Nc3nccs3)cc2Cl)C1 [Example 146, 5-Chloro-2-fluoro-4-(((1S,2S)-2-((1-isobutyrylazetidin-3-yl)(methyl)amino)cyclohexyl)amino)-N-(thiazol-2-yl)benzenesulfonamide]
hNav1.7 [1]
  IC50: 154 nM
hNav1.7 [2]; [3]
  IC50: 15.4 nM

## CN1CC[C@H](C(=O)N(C)[C@H]2CCCC[C@@H]2Nc2cc(F)c(S(=O)(=O)Nc3nccs3)cc2Cl)C1 [Example 199, (S)—N-((1S,2S)-2-((2-chloro-5-fluoro-4-(N-(thiazol-2-yl)sufamoyl)phenyl)amino)cyclohexyl)-N,1-dimethylpyrrolidine-3-carboxamide]
hNav1.7 [1]
  IC50: 131 nM
hNav1.7 [2]; [3]
  IC50: 18.7 nM

## Cc1csc(NS(=O)(=O)c2cc(Cl)c(N[C@H]3CCCC[C@@H]3N(C)CCO)cc2F)n1 [Example 111, 5-chloro-2-fluoro-4-(((1S,2S)-2-((2-hydroxyethyl)(methyl)amino)cyclohexyl)amino)-N-(4-methylthiazol-2-yl)benzenesulfonamide]
hNav1.7 [1]
  IC50: 678 nM
hNav1.7 [2]; [3]
  IC50: 23.4 nM

## O=S(=O)(Nc1ccncn1)c1cc(Cl)c(N[C@@H]2CCCC[C@H]2N2CC3CC3C2)cc1F (stereo partly drawn) [Example 152, 4-(((1R,2R)-2-(3-azabicyclo[3.1.0]hexan-3-yl)cyclohexyl)amino)-5-chloro-2-fluoro-N-(pyrimidin-4-yl)benzenesulfonamide]
hNav1.7 [1]
  IC50: 2000 nM
hNav1.7 [2]; [3]
  IC50: 1680 nM
